Measured values taken from patent publication US9759725B2, “Treatment-induced damage to the tumor micro-environment promotes cancer therapy resistance through extracellular proteins” (Fred Hutchinson Cancer Research Center, priority 2012, dated 2017).
“Also recorded” adds a separate entry of the source.

Assays:
PC3 cells [1] = experiment: In vivo chemoresistance study: subrenal capsule xenografts treated with three cycles of MIT; design: species or system mouse
Method: All animal studies were performed in accordance with protocols approved by the Institutional Animal Care and Use Committee (IACUC) of Fred Hutchinson Cancer Research Center, and were carried out in accordance with the NIH Guide for laboratory animals. Mouse care/welfare and veterinary oversight were provided by the center animal care. ICR SCID mice (Taconic, Inc.) at an age of approximately 6 weeks (25 g body weight) were used. Rat tail collagen (high concentration, type I) was prepared before the ice-cold collagen solution was neutralized and adjusted to the proper osmolarity by adding a mixture of NaOH and ×10 PBS. To prepare tissue recombinants, fibroblasts (PSC27 strain) and epithelial cells (PC3, BPH1 or MDA-MB-231) were mixed at a ratio of 1:1, with each recombinant comprised of 250,000 cells of each line. After polymerization, the cell/collagen mixture was overlaid with growth medium and incubated at 37° C. for 1 hour before implantation.
Xenografting was performed under isoflurane anesthesia. A pocket beneath the back skin was formed using surgical scissors, with an oblique incision (<1 cm) made on the capsule surface parallel and adjacent to the long axis of each kidney. Cells were injected under the capsule with a blunt 25-gauge needle and a glass Hamilton syringe via a transrenal injection, forming a starting tumor with a volume of 1 to 2 mm^3. The kidney was returned to the retroperitoneal space and the skin was closed with surgical staples. The growth of xenografts was assessed at weekly intervals using ultrasound instruments. Animals were sacrificed at 2-8 weeks post transplantation, based on the tumor burden and pathological progression of tested animals. Upon dissection, tumor volume (V) was measured and calculated according to the tumor length (1) and width (w) by the following formula: V=(π/6)×((l+w)/2)^3 (Anand et al., Nat. Genet 31:301-305, 2002). Tumors were snap-frozen or processed conventionally for formalin fixation. Resulting sections were used for hematoxylin/eosin staining, and immunostaining for selected gene expression markers.
For chemoresistance studies, ICR SCID mice received subrenal capsule xenografts by implantation according to the procedure described above. After surgery, mice were given standard laboratory diets and water ad libitum for 2 weeks, to allow tumor uptake and growth initiation. Starting from the 3rd week (when tumor sizes reached from about 4 to about 8 mm in diameter), mice received Mitoxantrone at a dose of 0.2 mg/kg by i.p. injection, or vehicle control, on day 1 of week 3, week 5, and week 7 (Alderton et al., Cancer Res. 52:194-201, 1992). Between 8 and 12 mice were randomly assigned to each study arm. A total regimen of 3 2-week cycles was administered. After the final treatment cycle the mice were sacrificed, kidneys were removed for tumor measurement and histological analysis. The cumulative Mitoxantrone dose received per mouse was 0.6 mg/kg. Each experimental arm comprised 5-8 mice per treatment cohort.

PC3 cells [2] = experiment: Acute in vivo response to MIT: cleaved caspase 3 IHC in xenografts; design: species or system mouse; conditions: 24 hours after MIT
Method: For assessments of the acute effects of chemotherapy, mice harboring xenografts of PC3 cells combined with PSC27 fibroblasts were treated with Mitoxantrone 0.2 mg/kg by i.p. injection, or vehicle control. Xenografts were collected 24 hour after treatment and tissues were processed for IHC. Apoptosis was assessed by staining with anti-caspase 3 antibody (cleaved, BioCare Medical). On adjacent sections, immunostaining with anti-γH2AX (Upstate) was performed to quantitate cells with DNA-damage.

Wnt16b = experiment: Systemic effect of MIT on Wnt16b expression in mouse organs (Western immunoblot); format: in vivo; conditions: mice, three MIT treatments over eight weeks
Method: To determine the systemic effects of MIT treatment on Wnt16b expression, parallel experiments involved administering MIT or vehicle as per the treatment schema above, to cohorts of mice (n=6) without xenografts. At the completion of the 8-week treatment regimen, mice were euthanized and various tissues were rapidly resected and snap frozen or fixed in formalin. Following protein isolations, Western immunoblot analysis was performed for Wnt16b expression, as described above.

[3] = test system: primary prostate fibroblasts (PSC27 cells)
Method: After treatment, the cells were rinsed 3 times with PBS and left to recover for 3 days in PSC medium.
Cells growing on coverslips were rinsed, subjected to fixation in 4% paraformaldehyde and permeabilization with 0.1% Triton-X100 prior to immunostaining Primary mouse monoclonal anti-phospho-Histone H2A.X (Ser139) (clone JBW301) and secondary antibody Alexa Fluor® 488 (or 594)-conjugated F(ab′)2 goat anti-mouse IgG were sequentially applied. Nuclei were counterstained with 2 μg/ml of 4′,6-diamidino-2-phenylindole (DAPI) and coverslips were mounted onto glass slides. Upon visual examination of the DNA damage extent with immunofluorescence microscopy, DDR foci were recorded with a 4-category counting strategy, namely 4 classes: 0 foci, 1 to 3 foci, 4 to 10 foci, and >10 foci. Data from each cell line/treatment were averaged from a pool of 3 independent fields counting 100 nuclei per pool.

prostate cancer cells [4] = experiment: Chemoresistance (viability) assay with MIT in fibroblast conditioned medium; format: cell-based, human
Method: Chemoresistance assays were performed using epithelial cells cultured with either DMEM and low serum (0.5% FCS) (abbreviated as “DMEM”), or conditioned medium (CM) generated from PSC27, […] or OVF28901 cells expressing vector controls, WNT16B, or siRNAs. […] Cell viability was then assayed, and the percentage of viable cells was calculated by comparing each experiment to vehicle-treated cells. Each assay was repeated a minimum of 3 times with results reported as mean±s.e.m. For chemoresistance assays, various neoplastic epithelial cells were cultured with either DMEM of low serum (0.5% FBS) only (abbreviated as “DMEM”), or CM generated from PSC27, HBF1023 or OVF28901 in various states (e.g., WNT16B overexpression, WNT16B knockdown, irradiated). […] Cell viability was assayed by MTS or direct counting with trypan blue, and the percentage of viable cells was calculated by normalizing absorbance of each experiment to untreated cells. To assess the influence of WNT16B across a range of MIT concentrations, a series of drug concentrations were applied bracketing the IC50 dose, with percent survival plotted against MIT dose at a 3-day time point. […] Luciferase assays were performed using a Dual-Luciferase Reporter Assay kit, and fold induction for each cell line was calculated as normalized relative light units of TOPFLASH divided by those of FOPFLASH. […]

prostate cancer cells [5] = experiment: Trans-well invasion of prostate cancer cells in fibroblast conditioned medium; format: cell-based, human; conditions: 24 h of treatment
Method: All assays were performed at least three times and reported as mean values. Assays of cell proliferation were performed with the CellTiter96® AQueous One Solution Cell Proliferation Assay (MTS) with signals captured using a 96-well plate reader or by direct counting using a hemacytometer. For trans-well migration and invasion assays, serum-starved cells in serum-free medium were added to the top chambers of Cultrex 24-well Cell Migration Assay plates (8 μm size) coated with or without basement membrane extract (BM) prepared as 0.5× of stock solution. CM from fibroblasts or regular epithelial media containing 10% fetal calf serum (FCS) were added to the bottom chambers. Migrating or invading cells in the bottom chambers were stained and plate absorbance was recorded at 485/520 nm emission. Each assay was performed in triplicate and measured at 24 hour time points over 3 days and presented as the average absorbance of migrating cells and invading cells, with human HeLA cervical cancer cell line (ATCC) used as a reference positive control. […] Luciferase assays were performed using a Dual-Luciferase Reporter Assay kit, and fold induction for each cell line was calculated as normalized relative light units of TOPFLASH divided by those of FOPFLASH. […]

epithelial cells = experiment: EMT-associated gene/protein expression in epithelial cells exposed to WNT16B conditioned medium; format: cell-based, human; conditions: epithelial cells in WNT16B fibroblast CM
PC3 cells [6] = experiment: Caspase 3/7 apoptosis assay of PC3 cells exposed to MIT; format: cell-based, human; conditions: 24 hour of MIT exposure (IC50)
Text: For apoptosis assays, 0.2×10^6 PC3 cells were dispensed into 6-well culture plates and co-cultured with media conditioned from PSC27 sublines. […] For the morphological analysis, bright field pictures were taken for PC3 cells with inverted phase-contrast microscopy.

prostate cancer cells [7] = experiment: Proliferation of prostate cancer cells in fibroblast conditioned medium; format: cell-based, human; conditions: cell numbers 72 hours after treatment
Method: The cultures were incubated for 3 days after which cells were detached with trypsin and the total cell number was determined by direct counting with hemacytometer. The PSC27/BPH1-GFP proportion was determined on a FACScan using GFP fluorescence as a marker for BPH1-GFP cells. […] The supernatant was harvested, filtered, concentrated and either stored frozen at −80° C. or applied immediately. BPH1-GFP, PC3 and other cell lines were seeded in conditioned medium or fresh DMEM+0.5% FBS, and grown for specific time periods and the total number of cells was determined by direct counting. All assays were performed at least three times and reported as mean values. Assays of cell proliferation were performed with the CellTiter96® AQueous One Solution Cell Proliferation Assay (MTS) with signals captured using a 96-well plate reader or by direct counting using a hemacytometer. […] Migrating or invading cells in the bottom chambers were stained and plate absorbance was recorded at 485/520 nm emission. Each assay was performed in triplicate and measured at 24 hour time points over 3 days and presented as the average absorbance of migrating cells and invading cells, with human HeLA cervical cancer cell line (ATCC) used as a reference positive control. […]

WNT16B promoter = WNT16B promoter luciferase reporter assay; format: cell-based, human; conditions: compared to untreated cells
Text: The immediate 5′ upstream sequences containing putative NF-κB binding elements of the WNT16B gene were amplified from genomic DNA extracted from PSC27 cells by a DNeasy Blood and Tissue kit (QIAGEN). PCR products were cloned into pCR2.1-TOPO vector (Invitrogen) and each insert was sequenced for confirmation. PCR fragments were then double-digested and subcloned into a reporter luciferase vector pGL4.22 vector. Constructs containing one or multiple mutant NF-κB binding sites were generated from the reporter vector series by site-directed mutagenesis. The NAT11-Luc2CP-IRES-nEGFP control construct that contains large copy numbers of NF-κB binding sequences and an optimized IL-2 minimal promoter as part of NFκB-activated transgene (NAT) system was kindly provided by Dr. Hatakeyama (Hokkaido University). All constructs were confirmed by DNA sequencing in both directions. Reporter vectors were co-transfected with pRL-TK vector for transfection efficiency controls and internal normalization for gene expression measurements. Cells were either treated with 20 ng/ml TNF-α for 90 min, exposed to 10 Gy γ-irradiation or 1 μM Mitoxantrone for 1 day. […] Luciferase activity was measured using the Luciferase Assay System and normalized luciferase activities were calculated as light units normalized to renilla luciferase activity present in each specimen.

With `O=C1c2c(O)ccc(O)c2C(=O)c2c(NCCNCCO)ccc(NCCNCCO)c21` [MIT, mitoxantrone] the “tumor volumes, MIT vs no MIT” value (PC3 cells [1]; BPH-1 or PC3 plus PSC27^WNT16B or PSC27^C fibroblasts, three cycles of MIT) was “significantly reduced”, the “tumor volume after MIT” value (PC3 cells [1]; PC3 + PSC27^C+shRNA^C grafts) was 20 mm^3 and the “tumor volume after MIT” value (PC3 cells [1]; PC3+PSC27-RAD grafts (300 mm^3 without MIT)) was 55 mm^3. For the same compound, the “tumor volume after MIT” value (PC3 cells [1]; PC3+PSC27^C grafts) was 13 mm^3, the “tumor volume after MIT” value (PC3 cells [1]; PC3+PSC27^WNT16B grafts) was 78 mm^3 and the “tumor size, MIT-treated vs untreated mice” value (PC3 cells [1]; tumor cells with unirradiated PSC27 fibroblasts (PSC27^C)) was “substantially smaller”. The “apoptotic cells (cleaved caspase 3 IHC)” value (PC3 cells [2]; PC3+PSC27^C grafts) was 34%, the “apoptotic cells (cleaved caspase 3 IHC)” value (PC3 cells [2]; PC3+PSC27^WNT16B tumors) was 14% and the “expression of WNT16B protein in prostates, breasts and ovaries” value (Wnt16b) was “induced”. For the same compound, the “number of γ-H2AX foci” value [3] was “substantially increased”.
With `Oc1nc(-c2ccc(C(F)(F)F)cc2)nc2c1CSCC2` [XAV939] the “effects of PSC27-RAD-conditioned medium on promoting tumor cell survival” value (prostate cancer cells [4]) was “attenuated”, the “invasive effect of the PSC27-RAD DDSP (full DDSP)” value (prostate cancer cells [5]) was “markedly attenuated; also recorded: attenuates” and the “invasive response induced by WNT16B” value (prostate cancer cells [5]) was “completely suppressed; also recorded: suppresses”. The “WNT16B-induced EMT-associated gene expression” value (epithelial cells) was “blocked”, the “attenuation of MIT apoptotic response by PSC27^WNT16B-conditioned medium” value (PC3 cells [6]) was “blocked” and the “proliferative effect of the PSC27-RAD DDSP (full DDSP CM)” value (prostate cancer cells [7]) was “markedly attenuated; also recorded: attenuates”. For the same compound, the “proliferative response induced by WNT16B (PSC27^WNT16B CM)” value (prostate cancer cells [7]) was “completely suppressed; also recorded: suppresses”.
For `OO` [hydrogen peroxide], the “number of γ-H2AX foci” value [3] was “substantially increased”.
In the case of TNF-α, the WNT16B reporter activity (WNT16B promoter) is reported as “induced”.
bleomycin was tested, and the “number of γ-H2AX foci” value [3] was “substantially increased”.
